Data on one compound can be found in patent US12466855B2, “Labeled oxytocin and method of manufacture and use” (TONIX PHARMA LIMITED, priority 2018, dated 2025).

Series [1] is described as follows: PET/MRI distribution of ^13N-oxytocin following IV administration in rats. The class given is in vivo. To be noted: female Sprague Dawley rat, 13.3 MBq in the tail vein (IV), 30 min dynamic PET, FIG. 2. How it is done: Anesthetised rats are scanned using a microPET scanner (nanoscan microPET/IT MRI, Mediso Ltd, Budapest, Hungary). Body temperature is maintained and circulation and respiration are monitored. First, a structural T2-weighted MRI scan is obtained for attenuation correction. Subsequently, the rat is injected through the tail vein with the ^13N-oxytocin radiotracer. […] The list-mode data of the emission scans are split into a dynamic sequence of frames. The data are reconstructed per time frame employing an iterative reconstruction. Appropriate correction factors are applied producing quantitative dynamic images (matrix size (x, y, z) 93, 93, 120. Voxel size 0.4 mm. 3D Tera-Tomo reconstruction with Monte Carlo based estimation, attenuation and scatter correction). […] Sprague-Dawley rat MRI brain atlas using PMOD software (version 3.7, PMOD Technologies Ltd, Zurich, Switzerland), a commercially available software package for biomedical image quantification, to acquire data in regions of interest. The results are expressed as dimensionless standardized uptake values (SUVs): [tissue activity concentration (MBq/g)×body weight (g)/injected dose (MBq)].
In one study, female Sprague Dawley rats were housed two per cage under a 12 h light/12 h dark cycle at an average temperature of 21° C. and humidity of 55%, with ad libitum access to food and water. […]

Series [2] in a line: PET/MR distribution of ^13N-oxytocin following nasal administration in rats. The format is in vivo, rat. To be noted: intranasal, approx. 100 μl (1-2 MBq) per nostril in 10% ethanol/90% saline, 60 min PET scan, FIG. 3. How it is done:
Anesthetised rats are scanned using a microPET scanner (nanoscan microPET/IT MRI, Mediso Ltd, Budapest, Hungary). Body temperature is maintained and circulation and respiration are monitored. First, a structural T2-weighted MRI scan is obtained for attenuation correction. Subsequently, the rat is injected through the tail vein with the ^13N-oxytocin radiotracer. A list-mode protocol is used with a 60-min acquisition time. The list-mode data of the emission scans are split into a dynamic sequence of frames. The data are reconstructed per time frame employing an iterative reconstruction. Appropriate correction factors are applied producing quantitative dynamic images (matrix size (x, y, z) 93, 93, 120. Voxel size 0.4 mm. 3D Tera-Tomo reconstruction with Monte Carlo based estimation, attenuation and scatter correction). A summed PET image of each 60 min scan is co-registered to an average Sprague-Dawley rat MRI brain atlas using PMOD software (version 3.7, PMOD Technologies Ltd, Zurich, Switzerland), a commercially available software package for biomedical image quantification, to acquire data in regions of interest. The results are expressed as dimensionless standardized uptake values (SUVs): [tissue activity concentration (MBq/g)×body weight (g)/injected dose (MBq)].
The distribution of ^13N-oxytocin following nasal administration in rats is tested. […]

For series [3] the following is noted: human patients, migraine headache pain, after administration; cited from earlier work.

`CC[C@H](C)[C@@H]1NC(=O)[C@H](Cc2ccc(O)cc2)NC(=O)[C@@H](N)CSSC[C@@H](C(=O)N2CCC[C@H]2C(=O)N[C@@H](CC(C)C)C(=O)NCC(N)=O)NC(=O)[C@H](CC(N)=O)NC(=O)[C@H](CCC(N)=O)NC1=O` [oxytocin, Cys-Tyr-Ile-Gln-Asn-Cys-Pro-Leu-Gly]: the “brain uptake / CNS penetration (PET and MR scans)” value in series [1] is listed as “lack of CNS penetration”. For the same compound, the “brain uptake / CNS penetration (PET/MR overlay)” value in series [2] is “lack of CNS penetration”. In series [3], the “initial period before onset of significant analgesia” value is listed as “up to 2 hours” and the “time to maximal analgesic effect” value was 4 h.
